Here are results for eleven compounds from BindingDB's records for doi:10.1016/s0968-0896(01)00250-4 (Pfizer, 2002).

This experiment has as its target T1, Caspase-1 (Homo sapiens, UniProt P29466).
T1 sequence (P29466 whole entry): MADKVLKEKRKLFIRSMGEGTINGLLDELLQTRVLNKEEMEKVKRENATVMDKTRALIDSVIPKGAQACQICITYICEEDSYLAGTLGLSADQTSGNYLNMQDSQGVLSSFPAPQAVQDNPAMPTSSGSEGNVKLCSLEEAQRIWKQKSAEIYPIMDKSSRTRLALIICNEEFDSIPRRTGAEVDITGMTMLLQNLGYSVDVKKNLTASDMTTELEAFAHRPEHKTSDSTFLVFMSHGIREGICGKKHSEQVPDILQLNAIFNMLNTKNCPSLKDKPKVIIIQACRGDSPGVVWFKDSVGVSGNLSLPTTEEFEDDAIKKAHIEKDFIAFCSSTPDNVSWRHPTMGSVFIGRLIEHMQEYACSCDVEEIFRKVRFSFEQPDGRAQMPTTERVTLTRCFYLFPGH
As to the kind of experiment: Caspase Inhibition Assay. As to conditions: pH 7; 37 °C. The protocol:
The substrate peptides terminating in AMC are processed by caspases with or without inhibitors, and the accumulation of AMC was assessed with a Cytofluor fluorescent plate reader at excitation and emission wavelengths of 380 and 460 nm. Compounds were tested, and full IC50 curves were run for all compounds expressing measurable inhibitory activity.
On to `Cc1ccccc1-c1ccccc1S(=O)(=O)N[C@H](C=O)CC(=O)O` [(S)-3-(2-Methyl-biphenyl-2-sulfonylamino)-4-oxo-butyric acid], for which the inhibition constant Ki (commonly the equilibrium dissociation constant of an inhibitor or competing ligand from its target) is 6.8 µM.
`O=C[C@H](CC(=O)O)NS(=O)(=O)c1ccccc1-c1cccc2ccccc12` [(3S)-3-{[2-(naphthalen-1-yl)benzene]sulfonamido}-4-oxobutanoic acid]: the Ki worked out at 6.9 µM.
`O=C[C@H](CC(=O)O)NS(=O)(=O)c1ccccc1` [(3S)-3-benzenesulfonamido-4-oxobutanoic acid] came in with a Ki of 9.4 µM.
For the compound `CC(=O)N[C@@H](Cc1ccc(O)cc1)C(=O)N[C@H](C(=O)N[C@@H](C)C(=O)N[C@@H](CC(=O)O)C(=O)CCCCCc1ccccc1)C(C)C` [(3S)-3-[(2S)-2-[(2S)-2-[(2S)-2-acetamido-3-(4-hydroxyphenyl)propanamido]-3-methylbutanamido]propanamido]-4-oxo-9-phenylnonanoic acid], the Ki was determined as 0.011 µM.
For `O=C(O)C[C@H](NC(=O)OCc1ccccc1)C(=O)CCCCCc1ccccc1` [(S)-3-Benzyloxycarbonylamino-4-oxo-9-phenyl-nonanoic acid], the Ki is 119 µM.
The same measure for `O=C(O)C[C@H](NC(=O)OCc1ccccc1)C(=O)CSCCCc1ccccc1` [(S)-3-Benzyloxycarbonylamino-4-oxo-5-(3-phenyl-propyl-sulfanyl)-pentanoic acid]: 25 µM.
The result for `O=C(O)C[C@H](NS(=O)(=O)c1ccccc1)C(=O)CCCCCc1ccccc1` [(3S)-3-benzenesulfonamido-4-oxo-9-phenylnonanoic acid] reads 24 µM.
The compound `Cc1ccc(-c2ccccc2S(=O)(=O)N[C@H](C=O)CC(=O)O)cc1` [(3S)-3-{[2-(4-methylphenyl)benzene]sulfonamido}-4-oxobutanoic acid] showed a Ki of 7.2 µM.
The same measure for `Cc1cccc(S(=O)(=O)N[C@H](C=O)CC(=O)O)c1-c1ccccc1` [(S)-3-(6-Methyl-biphenyl-2-sulfonylamino)-4-oxo-butyric acid]: 1.9 µM; for `Cc1cccc(-c2ccccc2S(=O)(=O)N[C@H](C=O)CC(=O)O)c1` [(3S)-3-{[2-(3-methylphenyl)benzene]sulfonamido}-4-oxobutanoic acid]: 3.1 µM; for `O=C(O)C[C@H](NS(=O)(=O)c1ccccc1)C(=O)CSCCCc1ccccc1` [(3S)-3-benzenesulfonamido-4-oxo-5-[(3-phenylpropyl)sulfanyl]pentanoic acid]: 24 µM.
